Experimental data: patent US20070149456A1, “Epithelial sodium channel inhibiting agents and uses therefor” (University of Pittsburgh, priority 2005, published 2007)
Values joined by “and” are separate entries in the source; they are usually repeats but may differ in a detail not shown here. Equal values may be shown once. “Also recorded” adds a separate entry of the source. Read-outs that look alike come from different tables or passages of the source.

Target: T1, endogenous ENaC in HAE cells (Homo sapiens, UniProt P37088+P51168+P51170)
T1 construct: endogenous in cells; host or cells: primary human airway (bronchial) epithelial cells from transplant or donor lungs
Test: Amiloride-sensitive short circuit current in primary human airway epithelial (HAE) cell monolayers, Ussing chamber
Format: cell-based
Conditions: for inhibition of amiloride sensitive short circuit currents: HAE, increasing concentrations of peptide; for Ki: HBE cells
Text: Primary Cultures of HAE Cells—HAE cells were obtained from excess pathological tissue remaining after lung transplantation or from organ donor lungs deemed not suitable for transplantation under a protocol approved by the University of Pittsburgh […] Review Board. All cells were isolated from second through sixth generation bronchi and grown on permeable Transwell supports (Coming Inc.) as previously described (Devor, D. C., and Pilewski, J. M. (1999), UTP inhibits Na^+ absorption in wild-type and DeltaF508 CFTR-expressing human bronchial epithelia, Am. J. Physiol. 276, C827-C837 31. ).
Short Circuit Current Measurements—Cell culture inserts were mounted in modified Ussing chambers (Harvard Apparatus, Holliston, Mass.), and the monolayers were continuously short-circuited with a voltage/current clamp system (Physiologic Instruments, San Diego, Calif.). A 2-mV bipolar pulse was applied periodically to measure the resistance of the monolayer. As previously described by Bridges et al. (Bridges, R. J., Newton, B. B., Pilewski, J. M., Devor, D. C., Poll, C. T., and Hall, R. L. (2001), Na+ transport in normal and CF human bronchial epithelial cells is inhibited by BAY 39-9437, Am. J. Physiol. 281, L16-L23 32, Na^+ transport in normal and CF human bronchial epithelial cells is inhibited by BAY 39-9437), the bath solution contained (in mM) 120 NaCl, 25 NaHCO3, 3.3 KH2PO4, 0.8 K2HPO4, 1.2 MgCl2, 1.2 CaCl2, and 10 glucose. The pH of this solution was 7.4 when gassed with a mixture of 95% O2-5% CO2 at 37° C.
Primary cultures of HAE cells grown on permeable membrane supports and mounted in modified Ussing chambers were continuously short-circuited by a voltage clamp amplifier (Physiologic Instruments, San Diego, Calif.). Monolayers were exposed to increasing concentrations of either the γ-peptide (closed circles) or a scrambled peptide (open circles). […] (n=8-9).
Vectors and Cell Culture—Wild-type, C-terminal and double epitope tagged mouse ENaC subunit cDNAs were previously described (Hughey, R. P., Mueller, G. M., Bruns, J. B., Kinlough, C. L., Poland, P. A., Harkleroad, K. L., Carattino, M. D., and Kleyman, T. R. (2003) J Biol Chem 278, 37073-37082 and Ahn, Y. J., Brooker, D. R., Kosari, F., Harte, B. J., Li, J., Mackler, S. A., and Kleyman, T. R. (1999), Cloning and functional expression of the mouse epithelial sodium channel, Am J Physiol 277, F121-129). The γ subunit mutations were generated in pcDNA3.1 (+) using a standard two-step PCR method. A cDNA clone (IMAGE #: 3600399) encoding full length mouse prostasin was obtained from Open Biosystems (Huntsville, Ala.) and sub-cloned into pcDNA3.1 (+) (Invitrogen, Carlsbad, Calif.). MDCK type 1 cells were a gift from Barry M. Gumbiner (Memorial Sloan-Kettering Cancer Center, New York) and were cultured as previously described (Lavelle, J. P., Negrete, H. O., Poland, P. A., Kinlough, C. L., Meyers, S. D., Hughey, R. P., and Zeidel, M. L. (1997), Low permeabilities of MDCK cell monolayers: a model barrier epithelium, Am J Physiol 273, F67-75). CCD (mpkCCDc14) cells were a gift from Alain Vandewalle (Institut National de la Santéet de la Recherche Médicale, Paris, France) and were cultured as previously described (Bens, M., Vallet, V., Cluzeaud, F., Pascual-Letallec, L., Kahn, A., Rafestin-Oblin, M. E., Rossier, B. C., and Vandewalle, A. (1999) J Am Soc Nephrol 10, 923-934). HAE cells were isolated and cultured as described (Devor, D. C., Bridges, R. J., and Pilewski, J. M. (2000), Pharmacological modulation of ion transport across wild-type and DeltaF508 CFTR-expressing human bronchial epithelia, Am J Physiol Cell Physiol 279, C461-479). […]

T1 sequence (P37088 1-178): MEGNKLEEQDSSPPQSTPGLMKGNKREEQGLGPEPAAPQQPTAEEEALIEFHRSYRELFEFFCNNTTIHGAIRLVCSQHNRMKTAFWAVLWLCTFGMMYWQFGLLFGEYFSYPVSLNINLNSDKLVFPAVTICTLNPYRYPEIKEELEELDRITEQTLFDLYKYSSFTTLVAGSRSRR
T1 sequence (P37088 205-669): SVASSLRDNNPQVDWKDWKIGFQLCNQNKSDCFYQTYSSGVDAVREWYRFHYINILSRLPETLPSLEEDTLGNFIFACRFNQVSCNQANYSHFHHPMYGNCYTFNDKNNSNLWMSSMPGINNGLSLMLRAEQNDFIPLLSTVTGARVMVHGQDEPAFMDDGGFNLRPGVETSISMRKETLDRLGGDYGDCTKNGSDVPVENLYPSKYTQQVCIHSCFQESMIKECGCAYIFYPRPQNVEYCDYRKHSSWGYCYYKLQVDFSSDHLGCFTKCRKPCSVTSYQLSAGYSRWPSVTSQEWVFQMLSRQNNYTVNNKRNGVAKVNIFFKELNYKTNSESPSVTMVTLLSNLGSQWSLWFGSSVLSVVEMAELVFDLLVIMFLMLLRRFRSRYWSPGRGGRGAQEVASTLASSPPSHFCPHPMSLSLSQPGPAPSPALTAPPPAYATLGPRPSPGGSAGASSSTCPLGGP
T1 sequence (P51168 whole entry): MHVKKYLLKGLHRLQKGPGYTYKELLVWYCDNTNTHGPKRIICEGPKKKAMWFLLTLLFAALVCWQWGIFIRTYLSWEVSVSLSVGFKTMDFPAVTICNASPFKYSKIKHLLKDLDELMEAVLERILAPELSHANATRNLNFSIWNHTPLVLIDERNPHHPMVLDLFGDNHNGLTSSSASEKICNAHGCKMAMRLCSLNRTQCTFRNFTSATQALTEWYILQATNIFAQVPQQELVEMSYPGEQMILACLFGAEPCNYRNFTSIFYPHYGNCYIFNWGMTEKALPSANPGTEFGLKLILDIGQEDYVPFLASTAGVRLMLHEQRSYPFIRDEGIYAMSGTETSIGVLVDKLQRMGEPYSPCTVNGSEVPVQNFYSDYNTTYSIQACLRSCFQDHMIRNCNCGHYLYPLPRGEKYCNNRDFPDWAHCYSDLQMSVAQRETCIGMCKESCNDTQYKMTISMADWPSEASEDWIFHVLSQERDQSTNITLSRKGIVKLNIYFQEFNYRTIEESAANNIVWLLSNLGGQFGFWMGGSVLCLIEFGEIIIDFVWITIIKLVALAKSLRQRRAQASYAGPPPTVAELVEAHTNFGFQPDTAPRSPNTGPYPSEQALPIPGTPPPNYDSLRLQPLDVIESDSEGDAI
T1 sequence (P51170 1-138): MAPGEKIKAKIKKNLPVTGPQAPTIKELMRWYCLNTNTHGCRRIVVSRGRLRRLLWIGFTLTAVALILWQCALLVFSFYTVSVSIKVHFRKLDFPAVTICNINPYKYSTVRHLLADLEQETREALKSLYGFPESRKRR
T1 sequence (P51170 182-649): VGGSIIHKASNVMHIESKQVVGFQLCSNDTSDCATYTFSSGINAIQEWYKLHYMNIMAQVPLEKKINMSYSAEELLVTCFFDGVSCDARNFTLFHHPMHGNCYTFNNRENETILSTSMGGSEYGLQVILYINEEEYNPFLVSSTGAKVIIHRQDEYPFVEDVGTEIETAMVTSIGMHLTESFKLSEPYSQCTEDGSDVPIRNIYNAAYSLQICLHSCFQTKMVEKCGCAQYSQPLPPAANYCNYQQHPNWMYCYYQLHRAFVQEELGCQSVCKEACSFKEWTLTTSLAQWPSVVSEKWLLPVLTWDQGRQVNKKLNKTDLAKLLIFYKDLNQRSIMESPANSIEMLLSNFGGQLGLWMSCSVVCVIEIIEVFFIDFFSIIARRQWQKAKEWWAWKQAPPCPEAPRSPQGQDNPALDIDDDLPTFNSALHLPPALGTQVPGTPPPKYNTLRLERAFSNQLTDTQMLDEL

Substance	IC50 (HAE primary cultures, nonlinear curve fitting, read-out: IC50, inhibition of short circuit currents)	inhibition of amiloride sensitive short circuit currents (listed as γ cleavage product)	inhibition of amiloride sensitive short circuit currents (listed as γ-peptide)	Ki (stated jointly for HBE and mpkCCDc14, read-out: apparent Ki, inhibition of endogenous ENaC activity) [nM]	Ki (stated jointly for HBE or mpkCCDc14, read-out: Ki, block of endogenous ENaC activity) [nM]
Ac-EAGSMRSTWEGTPPRFLNLIPLLVFNENEKGKARDFFTGRKRK-NH2 [γ-43]	2000 nM and 2000 to 3000 nM	inhibited in a dose dependent manner	potent inhibitor; also recorded: strong inhibition	~2000	
Ac-DLRGALPHPLQRLRTPPPPNPARSAR-NH2 [α-26]					50000 to 100000
